From patent US9637491B2, “Pyrazolo[4,3-D]pyrimidines as kinase inhibitors” (Origenis GmbH, priority 2012, dated 2017)

Molecular target: T1, SYK kinase (Homo sapiens, UniProt P43405)
T1 construct: purchased Invitrogen, Carlsbad
Test: SYK assay (OMNIA Kinase Assay, Invitrogen)
Format: biochemical
Details: SYK Activities; 1 mM ATP, 10 μM Omnia Peptide Substrate Tyr 7, 30° C.
Summary of the method: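 Continuous-read fluorescence kinase assay: SOX-labelled Tyr 7 peptide (10 μM) with 1 mM ATP and 0.2 mM DTT, 30° C, reaction started by adding SYK. Fluorescence (ex 360/em 485 nm) read every 30 s for 30 min. IC50 from sigmoidal fit of reaction velocity versus inhibitor concentration.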

| SMILES | IC50 |
| --- | --- |
| CS(=O)(=O)Nc1cccc(-c2nc(Nc3cnn(C4CCOCC4)c3)c3[nH]ncc3n2)c1 [Example 263, N-(3-(7-((1-(tetrahydro-2H-pyran-4-yl)-1H-pyrazol-4-yl)amino)-1H-pyrazolo[4,3-d]pyrimidin-5-yl)phenyl)methanesulfonamide] | 100 to 1000 nM |
| Fc1cc(Nc2nc(-c3ccon3)nc3cn[nH]c23)ccc1N1CCOCC1 [Example 75, N-(3-fluoro-4-morpholinophenyl)-5-(isoxazol-3-yl)-1H-pyrazolo[4,3-d]pyrimidin-7-amine] | 100 to 1000 nM |
| COCCn1ncc(Nc2nc(-c3ccco3)nc3cn[nH]c23)c1F [Example 403, N-(5-fluoro-1-(2-methoxyethyl)-1H-pyrazol-4-yl)-5-(furan-2-yl)-1H-pyrazolo[4,3-d]pyrimidin-7-amine] | 100 to 1000 nM |
| COc1ccc(Nc2nc(-c3cccc(C(=O)Nc4ccc(-c5ncco5)cc4)c3)nc3cn[nH]c23)cc1OC [Example 321, 3-(7-((3,4-dimethoxyphenyl)amino)-1H-pyrazolo[4,3-d]pyrimidin-5-yl)-N-(4-(oxazol-2-yl)phenyl)benzamide] | 100 to 1000 nM |
| CS(=O)(=O)Nc1cccc(-c2nc(Nc3cnn(CCO)c3)c3[nH]ncc3n2)c1 [Example 262, N-(3-(7-((1-(2-hydroxyethyl)-1H-pyrazol-4-yl)amino)-1H-pyrazolo[4,3-d]pyrimidin-5-yl)phenyl)methanesulfonamide] | 100 to 1000 nM |
| CC(=O)N1CCC(n2cc(Nc3nc(-c4cccc(NS(C)(=O)=O)c4)nc4cn[nH]c34)cn2)CC1 [Example 266, N-(3-(7-((1-(1-acetylpiperidin-4-yl)-1H-pyrazol-4-yl)amino)-1H-pyrazolo[4,3-d]pyrimidin-5-yl)phenyl)methanesulfonamide] | 100 to 1000 nM |
| COc1ccc(Nc2nc(-c3c(F)cccc3Cl)nc3cn[nH]c23)cc1OC [Example 513, 5-(2-chloro-6-fluorophenyl)-N-(3,4-dimethoxyphenyl)-1H-pyrazolo[4,3-d]pyrimidin-7-amine] | 100 to 1000 nM |
| CC(c1ccccc1)n1cc(Nc2nc(-c3ccc4cn[nH]c4c3)nc3cn[nH]c23)cn1 (stereo not drawn) [Example 477, 5-(1H-indazol-6-yl)-N-(1-(1-phenylethyl)-1H-pyrazol-4-yl)-1H-pyrazolo[4,3-d]pyrimidin-7-amine] | 100 to 1000 nM |
| COc1ccc(Nc2nc(C3CCCCCC3)nc3cn[nH]c23)cc1OC [Example 388, 5-cycloheptyl-N-(3,4-dimethoxyphenyl)-1H-pyrazolo[4,3-d]pyrimidin-7-amine] | 100 to 1000 nM |
| CC(C)c1nc(Nc2ccc(N3CCOCC3)cc2)c2[nH]ncc2n1 [Example 181, 5-isopropyl-N-(4-morpholinophenyl)-1H-pyrazolo[4,3-d]pyrimidin-7-amine] | 100 to 1000 nM |
| CN1CCC(n2cc(Nc3nc(-c4cocn4)nc4cn[nH]c34)cn2)CC1 [Example 129, N-(1-(1-methylpiperidin-4-yl)-1H-pyrazol-4-yl)-5-(oxazol-4-yl)-1H-pyrazolo[4,3-d]pyrimidin-7-amine] | 100 to 1000 nM |
| CC(C)(C)n1cc(Nc2nc(-c3ncco3)nc3cn[nH]c23)cn1 [Example 249, N-(1-(tert-butyl)-1H-pyrazol-4-yl)-5-(oxazol-2-yl)-1H-pyrazolo[4,3-d]pyrimidin-7-amine] | 100 to 1000 nM |
| Fc1cc(Nc2nc(-c3c(F)cccc3F)nc3cn[nH]c23)ccc1N1CCOCC1 [Example 11, 5-(2,6-difluorophenyl)-N-(3-fluoro-4-morpholinophenyl)-1H-pyrazolo[4,3-d]pyrimidin-7-amine] | 100 to 1000 nM |
| COCCn1cc(Nc2nc(-c3cnn(C)c3)nc3cn[nH]c23)cn1 [Example 188, N-(1-(2-methoxyethyl)-1H-pyrazol-4-yl)-5-(1-methyl-1H-pyrazol-4-yl)-1H-pyrazolo[4,3-d]pyrimidin-7-amine] | 100 to 1000 nM |
| Nc1ccccc1-c1nc(Nc2cnn(C3CCOCC3)c2)c2n[nH]cc2n1 [Example 531, 5-(2-aminophenyl)-N-(1-(tetrahydro-2H-pyran-4-yl)-1H-pyrazol-4-yl)-2H-pyrazolo[4,3-d]pyrimidin-7-amine] | 100 to 1000 nM |
| CC(C)(C)n1cc(Nc2nc(-c3cccc(NS(C)(=O)=O)c3)nc3cn[nH]c23)cn1 [Example 258, N-(3-(7-((1-(tert-butyl)-1H-pyrazol-4-yl)amino)-1H-pyrazolo[4,3-d]pyrimidin-5-yl)phenyl)methanesulfonamide] | 100 to 1000 nM |
| CC(C)(C#N)n1cc(Nc2nc(-c3ccoc3)nc3cn[nH]c23)cn1 [Example 203, 2-(4-((5-(furan-3-yl)-1H-pyrazolo[4,3-d]pyrimidin-7-yl)amino)-1H-pyrazol-1-yl)-2-methylpropanenitrile] | 100 to 1000 nM |

Next, values leading:

| IC50 | SMILES |
| --- | --- |
| 100 to 1000 nM | c1cncc(-c2nc(Nc3ccc(N4CCOCC4)nc3)c3[nH]ncc3n2)c1 [Example 126, N-(6-morpholinopyridin-3-yl)-5-(pyridin-3-yl)-1H-pyrazolo[4,3-d]pyrimidin-7-amine] |
| 100 to 1000 nM | CC(c1ccccc1)n1cc(Nc2nc(-c3ccoc3)nc3cn[nH]c23)cn1 (stereo not drawn) [Example 487, 5-(furan-3-yl)-N-(1-(1-phenylethyl)-1H-pyrazol-4-yl)-1H-pyrazolo[4,3-d]pyrimidin-7-amine] |
| < 10 nM | c1nn(C2CC2)cc1Nc1nc(-c2ccc3cn[nH]c3c2)nc2cn[nH]c12 [Example 418, N-(1-cyclopropyl-1H-pyrazol-4-yl)-5-(1H-indazol-6-yl)-1H-pyrazolo[4,3-d]pyrimidin-7-amine] |
| 100 to 1000 nM | CC(C)(C#N)c1ccc(Nc2nc(-c3c(F)cccc3F)nc3cn[nH]c23)cc1 [Example 28, 2-(4-((5-(2,6-difluorophenyl)-1H-pyrazolo[4,3-d]pyrimidin-7-yl)amino)phenyl)-2-methylpropanenitrile] |
| 10 to 100 nM | OCCN1CCN(c2ccc(Nc3nc(-c4c(F)cccc4F)nc4cn[nH]c34)cc2)CC1 [Example 501, 2-(4-(4-((5-(2,6-difluorophenyl)-1H-pyrazolo[4,3-d]pyrimidin-7-yl)amino)phenyl)piperazin-1-yl)ethan-1-ol] |
| < 10 nM | CC(C)(C)N1CCC(n2cc(Nc3nc(C4CC4)nc4cn[nH]c34)cn2)CC1 [Example 328, N-(1-(1-(tert-butyl)piperidin-4-yl)-1H-pyrazol-4-yl)-5-cyclopropyl-1H-pyrazolo[4,3-d]pyrimidin-7-amine] |
| 10 to 100 nM | CN1CCC(n2cc(Nc3nc(-c4ccc5cn[nH]c5c4)nc4cn[nH]c34)cn2)CC1 [Example 132, 5-(1H-indazol-6-yl)-N-(1-(1-methylpiperidin-4-yl)-1H-pyrazol-4-yl)-1H-pyrazolo[4,3-d]pyrimidin-7-amine] |
| 100 to 1000 nM | CC(C)(C#N)n1cc(Nc2nc(C3CCC3)nc3cn[nH]c23)cn1 [Example 225, 2-(4-((5-cyclobutyl-1H-pyrazolo[4,3-d]pyrimidin-7-yl)amino)-1H-pyrazol-1-yl)-2-methylpropanenitrile] |
| < 10 nM | CC(=O)N1CCC(n2cc(Nc3nc(-c4ccoc4)nc4cn[nH]c34)cn2)CC1 [Example 200, 1-(4-(4-((5-(furan-3-yl)-1H-pyrazolo[4,3-d]pyrimidin-7-yl)amino)-1H-pyrazol-1-yl)piperidin-1-yl)ethan-1-one] |
| 10 to 100 nM | CC(C)(C)N1CCC(n2cc(Nc3nc(-c4nc5c(s4)CCCC5)nc4cn[nH]c34)cn2)CC1 [Example 495, N-(1-(1-(tert-butyl)piperidin-4-yl)-1H-pyrazol-4-yl)-5-(4,5,6,7-tetrahydrobenzo[d]thiazol-2-yl)-1H-pyrazolo[4,3-d]pyrimidin-7-amine] |
| < 10 nM | CC(C)n1cc(Nc2nc(C3CCC3)nc3cn[nH]c23)cn1 [Example 223, 5-cyclobutyl-N-(1-isopropyl-1H-pyrazol-4-yl)-1H-pyrazolo[4,3-d]pyrimidin-7-amine] |
| 10 to 100 nM | COCCCn1cc(Nc2nc(-c3cccc(NS(C)(=O)=O)c3)nc3cn[nH]c23)cn1 [Example 260, N-(3-(7-((1-(3-methoxypropyl)-1H-pyrazol-4-yl)amino)-1H-pyrazolo[4,3-d]pyrimidin-5-yl)phenyl)methanesulfonamide] |
| 10 to 100 nM | CC(C)n1cc(Nc2nc(-c3cccs3)nc3cn[nH]c23)cn1 [Example 431, N-(1-isopropyl-1H-pyrazol-4-yl)-5-(thiophen-2-yl)-1H-pyrazolo[4,3-d]pyrimidin-7-amine] |
| < 10 nM | CC(=O)N1CCC(n2cc(Nc3nc(-c4cnn(C)c4)nc4cn[nH]c34)cn2)CC1 [Example 189, 1-(4-(4-((5-(1-methyl-1H-pyrazol-4-yl)-1H-pyrazolo[4,3-d]pyrimidin-7-yl)amino)-1H-pyrazol-1-yl)piperidin-1-yl)ethan-1-one] |
| 10 to 100 nM | Cn1cc(-c2nc(Nc3ccc(N4CCOCC4)cc3)c3[nH]ncc3n2)cn1 [Example 121, 5-(1-methyl-1H-pyrazol-4-yl)-N-(4-morpholinophenyl)-1H-pyrazolo[4,3-d]pyrimidin-7-amine] |
| 10 to 100 nM | COCC(COC)n1cc(Nc2nc(-c3ccc4cn[nH]c4c3)nc3cn[nH]c23)cn1 [Example 448, N-(1-(1,3-dimethoxypropan-2-yl)-1H-pyrazol-4-yl)-5-(1H-indazol-6-yl)-1H-pyrazolo[4,3-d]pyrimidin-7-amine] |
| 10 to 100 nM | CC(C)(C)N1CCN(c2ccc(Nc3nc(-c4c(F)cccc4F)nc4cn[nH]c34)cc2)CC1 [Example 10, N-(4-(4-(tert-butyl)piperazin-1-yl)phenyl)-5-(2,6-difluorophenyl)-1H-pyrazolo[4,3-d]pyrimidin-7-amine] |
| 10 to 100 nM | c1nn(C2CC2)cc1Nc1nc(C2CCC2)nc2cn[nH]c12 [Example 267, 5-cyclobutyl-N-(1-cyclopropyl-1H-pyrazol-4-yl)-1H-pyrazolo[4,3-d]pyrimidin-7-amine] |
| < 10 nM | OCCn1cc(Nc2nc(-c3ccco3)nc3cn[nH]c23)cn1 [Example 239, 2-(4-((5-(furan-2-yl)-1H-pyrazolo[4,3-d]pyrimidin-7-yl)amino)-1H-pyrazol-1-yl)ethan-1-ol] |
